Series [1] deals with patients with Crohn's disease. The following applies: cited from earlier work.
The target of series [2] is T1, p38β (Homo sapiens, UniProt Q15759).
T1 construct: HA (N); made in house; host or cells: E. coli BL21
The experiment in a line: Differential scanning fluorimetry (DSF), p38β. Format: binding.

For series [3], the system named is HMVECL monolayers. Put plainly: Endothelial permeability assay (10 kDa dextran flux). Format: cell-based, human. Conditions: TNFα and 39.5° C. for 6 h. As to the method:
Endothelial permeability assay: Permeability of HMVECL monolayers was assessed by measuring transendothelial flux of 10 kDa dextran conjugated to Cascade blue fluorescent dye for 30 min at 37° C. in Matrigel-coated 3 μm pore size Transwell plates.

Series [4] relates to IL-8-directed neutrophil TEM through HMVECLs. The experiment in a line: Neutrophil transendothelial migration (TEM) assay. The class given is cell-based, human. Conditions: HMVECLs 39.5° C. 6 h. As to the method: Neutrophil transendothelial migration (TEM) assay: Neutrophils were isolated from heparinized venous blood that was collected from healthy volunteers using a protocol approved by the University of Maryland Institutional Review Board and TEM of calcein-labeled neutrophils through HMVECLs was measured.

Series [5] deals with p38-dependent phosphorylation of MK2. The experiment in a line: Inhibition of substrate phosphorylation in HeLa cells, MK2. The following applies: 10 μM SB203580 or 50 μM UM101 30 min, then anisomycin. Format: cell-based, human. An excerpt:
(§1) Cell extracts prepared in RIPA buffer containing protease and phosphatase inhibitors were resolved by SDS-PAGE, transferred to PVDF membrane, blocked with 5% nonfat dry milk, probed with primary antibodies against phosphorylated MK2 and Stat-1, and total p38α as a loading control. Bands were detected using secondary antibodies conjugated to infrared fluorophores and infrared fluorescence imaging (Odyssey; LICOR).

Series [6] relates to p38-dependent phosphorylation of Stat-1. The experiment in a line: Inhibition of substrate phosphorylation in HeLa cells, Stat-1. The class given is cell-based, human. Conditions: 10 μM SB203580 or 50 μM UM101 30 min, then anisomycin.
From the text: as §1

The test system of series [7] is p38α vs. p38β. The following applies: cited from earlier work.
Series [8] relates to HMVECLs. The experiment in a line: TNFα-induced gene expression in HMVECLs (RNASeq). Conditions: 10 μM SB203580.
Series [9] concerns LPS/hyperthermia-induced ALI. The experiment in a line: Mouse LPS/hyperthermia-induced acute lung injury model, pretreatment. Conditions: for mice died within 24 h: 1000 μg i.p. 30 min prior to 50 μg LPS i.t. and hyperthermia.
Series [10] deals with LPS-induced lung inflammation. The experiment in a line: Mouse acute lung injury, pretreatment i.p. 1 mg (FIG. 9). Format: in vivo. The following applies: pretreated i.p. 1 mg, then 100 mg LPS i.t. at 39° C. The protocol:
Mice were pretreated i.p. with 1 mg of test compounds and then treated with […] LPS i.t. at 39° C. to induce inflammation. Lung injury was assessed by measuring total protein in the lung lavage fluid.
(§2) First, the compounds can block thrombin-induced cell permeability in human vascular endothelial cells (FIG. 8). […] Mice were pretreated i.p. with 1 mg of test compounds and then treated with […] LPS i.t. at 39° C. to induce inflammation. Lung injury was assessed by measuring total protein in the lung lavage fluid. […] All mice received 50 μg LPS i.t. and were kept 24 h at 39° C.; all treatments 1 mg in 0.5 ml DMSO given 6 h post-LPS; mean±SM, n=5, * p=0.03 vs DMSO #1; † p=0.16 vs DMSO #2. Lung injury was assessed by measuring total protein in the lung lavage fluid.

For series [11], the system named is LPS-induced lung injury. Put plainly: Mouse acute lung injury, treatment 6 h post-LPS (FIG. 10). Format: in vivo. The following applies: 50 μg LPS i.t., 24 h at 39° C., 1 mg in 0.5 ml DMSO 6 h post-LPS. As to the method: All mice received 50 μg LPS i.t. and were kept 24 h at 39° C.; all treatments 1 mg in 0.5 ml DMSO given 6 h post-LPS; mean±SM, n=5, * p=0.03 vs DMSO #1; † p=0.16 vs DMSO #2. Lung injury was assessed by measuring total protein in the lung lavage fluid.
as §2

For series [12], the target named is recombinant ERK2 (Homo sapiens, UniProt P28482). The experiment in a line: Differential scanning fluorimetry (DSF), ERK2. Format: binding. Conditions: for ERK2 ΔTm (° C.) @100 μM: change in melting temperature relative to DMSO control in DSF assay; for stabilization of ERK2 in DSF: 10-100 μM.
Series [13] relates to HMVECLs. The experiment in a line: Cytotoxicity, MTS assay. Format: cell-based, human. The following applies: 100 μM for 48 h.
The subject of series [14] is HMVECLs. The experiment in a line: Cytotoxicity, LDH release. The class given is cell-based, human. The following applies: 100 μM for 48 h.
The target of series [15] is unphosphorylated recombinant human p38α (Homo sapiens, UniProt Q16539). The experiment in a line: Differential scanning fluorimetry (DSF), p38α. The following applies: for p38α ΔTm (° C.) @100 μM: change in melting temperature relative to DMSO control in DSF assay; for increase in melting temperature of p38α: added at 100 μM.
Series [16] deals with T2, p38α mutant (R49K/HL 107-8TF/K165R) (Homo sapiens, UniProt Q16539, H107T/K165R/L108F/R49K).
T2 construct: made in house; host or cells: E. coli BL21
Put plainly: DSF, p38α mutant with 4 mutations in CADD-targeted pocket. Format: binding. The following applies: four of ten target pocket amino acids substituted.

The target in series [17] is T3, p38α (Homo sapiens, UniProt Q16539).
T3 construct: made in house; host or cells: E. coli BL21
The experiment in a line: STD-NMR, p38α. The class given is binding. The following applies: 200 μM UM101, 5 μM protein. The protocol: (§3) Spectra were recorded on an Agilent DD2 500-MHz spectrometer equipped with a 5-mm inverse HFCN probe head at 300 K. During each transient, the protein was saturated with a series of 58 […]-shaped pulses (50 ms, 1 ms delay between pulses) using the vendor-supplied STD-ES pulse sequence, for a total saturation time of 3 seconds. The on-resonance irradiation of protein was done at 0.5 ppm and off-resonance irradiation at 30 ppm. The vendor-supplied WATERGATE pulse sequence was used to suppress the water signal in the STD spectrum. The on-resonance and off-resonance pulse sequences were subtracted internally. A total of 16,384 transients were collected for each STD experiment with a 1 second delay between acquisitions, 6000 Hz spectral width, and 1.3 second acquisition time.

Series [18] addresses T1, p38β. Put plainly: STD-NMR, p38β. Format: binding. Conditions: 200 μM UM101, 5 μM protein. As to the method: as §3
Series [19] concerns the target T4, mutated p38α (Homo sapiens, UniProt Q16539, H107T/K165R/L108F/R49K).
T4 construct: made in house; host or cells: E. coli BL21
Put plainly: STD-NMR, mutated p38α. Format: binding. The following applies: 200 μM UM101, 5 μM protein. As to the method: as §3

For series [20], the system named is rheumatoid arthritis. Conditions: two trials; cited from earlier work.
Series [21] concerns patients at-risk for ARDS. The following applies: cited from earlier work.
The subject of series [22] is patients with hypercholesterolemia. The following applies: cited from earlier work.

Chain of unphosphorylated recombinant human p38α (Q16539 whole entry): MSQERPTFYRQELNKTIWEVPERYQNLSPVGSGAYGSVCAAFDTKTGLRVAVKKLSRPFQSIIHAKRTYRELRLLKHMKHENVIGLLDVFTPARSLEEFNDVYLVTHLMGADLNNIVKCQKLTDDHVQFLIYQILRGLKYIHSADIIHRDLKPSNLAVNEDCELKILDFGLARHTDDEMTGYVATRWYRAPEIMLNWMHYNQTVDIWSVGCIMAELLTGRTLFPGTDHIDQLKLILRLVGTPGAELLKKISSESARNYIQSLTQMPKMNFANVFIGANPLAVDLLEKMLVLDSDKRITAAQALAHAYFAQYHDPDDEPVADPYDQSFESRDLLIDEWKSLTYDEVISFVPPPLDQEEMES
T1 sequence (Q15759 whole entry): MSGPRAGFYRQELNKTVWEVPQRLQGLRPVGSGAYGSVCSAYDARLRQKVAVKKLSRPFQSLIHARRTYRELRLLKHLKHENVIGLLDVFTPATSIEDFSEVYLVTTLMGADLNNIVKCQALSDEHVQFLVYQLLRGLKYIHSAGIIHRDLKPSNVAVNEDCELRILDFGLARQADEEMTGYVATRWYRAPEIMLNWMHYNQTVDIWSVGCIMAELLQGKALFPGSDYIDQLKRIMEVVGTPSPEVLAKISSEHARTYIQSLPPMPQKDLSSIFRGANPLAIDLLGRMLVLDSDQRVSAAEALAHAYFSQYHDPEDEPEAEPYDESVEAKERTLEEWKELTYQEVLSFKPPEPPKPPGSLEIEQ
Chain of recombinant ERK2 (P28482 whole entry, species assumed): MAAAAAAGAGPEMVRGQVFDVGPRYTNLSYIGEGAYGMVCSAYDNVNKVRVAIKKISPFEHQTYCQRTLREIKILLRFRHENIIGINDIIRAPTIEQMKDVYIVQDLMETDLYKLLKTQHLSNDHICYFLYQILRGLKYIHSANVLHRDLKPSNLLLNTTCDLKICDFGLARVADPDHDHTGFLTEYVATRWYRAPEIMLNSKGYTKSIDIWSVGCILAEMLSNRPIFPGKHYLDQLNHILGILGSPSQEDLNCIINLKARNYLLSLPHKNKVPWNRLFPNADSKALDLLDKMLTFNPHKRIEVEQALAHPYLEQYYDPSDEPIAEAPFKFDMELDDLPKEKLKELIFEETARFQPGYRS
T3 sequence (Q16539 whole entry): as the sequence (Q16539 whole entry) above
T2 sequence (Q16539 whole entry R49K/H107T/L108F/K165R): as the sequence (Q16539 whole entry) above, with R49K, H107T, L108F, K165R counted along it
T4 sequence (Q16539 whole entry R49K/H107T/L108F/K165R): as the sequence (Q16539 whole entry) above, with R49K, H107T, L108F, K165R counted along it

For `Cc1ccc(-n2nc(C(C)(C)C)cc2NC(=O)Nc2ccc(OCCN3CCOCC3)c3ccccc23)cc1` [BIRB 796], in series [1], the clinical effect result is recorded as “no clinical effect” and the “serum CRP levels” value was “transiently reduced”.
Turning to `C[S+]([O-])c1ccc(-c2nc(-c3ccncc3)c(-c3ccc(F)cc3)[nH]2)cc1` (centres unmarked) [SB203580, reference compound], in series [2], the “stabilization of p38β in DSF” value was “stabilized both p38α and p38β”. Besides, in series [3] (10 μM), the “reduction of TNFα/hyperthermia-induced permeability increase for 10 kDa dextran” value is on record as 50%. Besides, the “reduction of hyperthermia-augmented increase in neutrophil TEM” value in series [4] (10 μM) is on record as 84%. Further, in [5], the “anisomycin-stimulated phosphorylation of MK2 (immunoblot)” value is on record as “reduced”. Further, the “anisomycin-stimulated phosphorylation of Stat-1 (immunoblot)” value in [6] was “reduced”. In addition, the “higher binding affinity for p38α than p38β” value in series [7] is listed as approximately 10 fold. Further, in series [8], the “number of TNFα-induced genes with expression inhibited” value is recorded as 61 genes and the “number of genes with expression increased” value is 38 genes. Also, the “reduction of lavage neutrophil content vs. DMSO-treated controls” value in [9] (1000 μg i.p.) was 46.8%. Further, the “mice died within 24 h” value in [9] is “one of six”.
As to `CN(C)c1cccc2c(S(=O)(=O)Nc3ccc(CN4CCS(=O)(=O)CC4)cc3)cccc12` [SF-6-222], the “protein leak into bronchoalveolar lavage fluid (total protein)” value in [10] and in [11] was “reduced protein leak” in each case.
Take `O=C(Nc1ccc(CN2CCOCC2)cc1)c1ccc(Cl)cc1` [SF-7-009]: the “protein leak into bronchoalveolar lavage fluid (total protein)” value in series [10] and in series [11] was “reduced protein leak” throughout.
On to `CN(C)c1cccc2c(S(=O)(=O)Nc3ccc(CN4CCOCC4)cc3)cccc12` [SF-7-044], for which the “protein leak into bronchoalveolar lavage fluid (total protein)” value in series [11] is listed as “reduced protein leak”.
In the case of `O=C1c2cc(S(=O)(=O)NCCO)ccc2-c2ccc(S(=O)(=O)NCCO)cc21` [UM60, N2,N7-di(2-hydroxyethyl)-9-oxo-9H-2,7-fluorenedisulfonamiide], the “ERK2 ΔTm (° C.) @100 μM” value in series [12] was 0.195 °C. In [12], the “stabilization of ERK2 in DSF” value was “not ERK2”. Moreover, the “reduction of TNFα/hyperthermia-induced permeability increase for 10 kDa dextran” value in series [3] (10 μM) is reported as “no effect”; in series [3] (25 μM), “no effect”; in [3] (100 μM) it was 71%. Moreover, the entries for the “reduction of hyperthermia-augmented increase in neutrophil TEM” value in series [4] (10 μM), in series [4] (25 μM) and in series [4] (50 μM) were 18%, 89% and “less than baseline levels”, respectively. For the same molecule, the “toxicity in MTS assay” value in series [13] is “Neither compound was toxic”. In [14], the “toxicity in LDH release assay” value is recorded as “Neither compound was toxic”. Also, the “stabilization of p38α in DSF” value in [15] is “stabilized p38α”. For the same molecule, the “p38α ΔTm (° C.) @100 μM” value in [15] was determined as 0.735 °C. The “increase in melting temperature of p38α” value in series [15] was approximately 0.7 °C. Also, the “mice died within 24 h” value in series [9] was “Four of six”.
Turning to `O=C(Nc1ccc(CN2CCS(=O)(=O)CC2)cc1)c1ccc(Cl)cc1` [UM101, 4-chloro-N-{4-[(1,1-dioxo-1lambda˜6˜-,4thiazinan-4-yl)methyl]phenyl}benzaniide], the “ERK2 ΔTm (° C.) @100 μM” value in series [12] amounted to 0.0175 °C. Besides, the “stabilization of ERK2 in DSF” value in series [12] is reported as “not ERK2”. The “stabilization of p38β in DSF” value in series [2] was “only stabilized p38α”. In addition, the “binding to p38α mutant in DSF” value in [16] was “no UM101-binding”. In addition, in series [17], the “interaction with p38α in STD-NMR” value is reported as “protons in both aromatic rings of UM101 interact with p38α”. In addition, the “interaction with p38β in STD-NMR” value in series [18] was “much weaker”. In addition, in series [19], the “interaction with mutated p38α in STD-NMR” value was “much weaker”. In addition, the “reduction of TNFα/hyperthermia-induced permeability increase for 10 kDa dextran” value in [3] (10 μM) was 74%; in [3] (25 μM), 89%; in [3] (100 μM) it was more than 100%. Also, the “reduction of hyperthermia-augmented increase in neutrophil TEM” value is recorded as 95% in [4] (10 μM), “less than baseline levels” in [4] (25 μM) and “less than baseline levels” in series [4] (50 μM). For the same molecule, in series [13], the “toxicity in MTS assay” value is “Neither compound was toxic”. Besides, in series [14], the “toxicity in LDH release assay” value is “Neither compound was toxic”. Besides, the “anisomycin-stimulated phosphorylation of MK2 (immunoblot)” value in [5] was “reduced”. In series [6], the “anisomycin-stimulated phosphorylation of Stat-1 (immunoblot)” value is reported as “reduced”. Further, the “protein leak into bronchoalveolar lavage fluid (total protein)” value in series [10] is on record as “reduced protein leak”. Also, the “stabilization of p38α in DSF” value in series [15] is reported as “only stabilized p38α”. Also, the “p38α ΔTm (° C.) @100 μM” value in [15] turned out to be 0.667 °C. In series [15], the “increase in melting temperature of p38α” value is approximately 0.7 °C. Further, the “reduction of lavage neutrophil content vs. DMSO-treated controls” value in [9] (100 μg i.p.) is 44.4%; in series [9] (300 μg i.p.) it was 49.5%; in [9] (500 μg i.p.), 55.3%; in series [9] (1000 μg i.p.), 54%. Also, in series [9] (100, 300, 500 or 1000 μg i.p. 30 min prior to 50 μg LPS i.t. and hyperthermia), the “mice survived (24 h)” value is given as “All sixteen”.
For `NC(=O)c1ccc(N(C(N)=O)c2c(F)cccc2F)nc1-c1ccc(F)cc1F` [VX-702], the “proportion of treated subjects with ACR20 symptom score vs. placebo” value in series [20] is “small increases”.
As to `Cc1cc(F)ccc1-c1nc(NC(CO)CO)nc2c1ccc(=O)n2-c1c(F)cccc1F` [dilmapimod], in series [21], the safety entry was “safe at the doses administered” and the “serum C-reactive protein (CRP) levels” value was “modestly reduced”.
`Cc1c(F)cc(C(=O)NC2CC2)cc1-c1ccc(C(=O)NCC(C)(C)C)cn1` [losmapimod]: in series [22], the “serum CRP” value is reported as “reduced serum CRP” and the vascular relaxation result is reported as “improved vascular relaxation”.

These data come from patent publication US20230140941A1, “NON-ATP/CATALYTIC SITE P38 MITOGEN ACTIVATED PROTEIN KINASE INHIBITORS” (UNIVERSITY OF MARYLAND, BALTIMORE, priority 2020, published 2023).
